In ChEMBL document CHEMBL3817824, “Synthesis and biological evaluation of new [1,2,4]triazolo[4,3-a]pyridine derivatives as potential c-Met inhibitors” (Bioorg Med Chem, 2016):

How the values were obtained:
[1] = molecular target: Hepatocyte growth factor receptor (Homo sapiens, UniProt P08581); test: Inhibition of c-Met (unknown origin) incubated for 1 hr by spectrophotometric analysis
[2] = Cytotoxicity against human SNU5 cells assessed as reduction in cell survival incubated for 3 days by cell titre-glo assay; conditions: SNU-5, 72 h
[3] = Cytotoxicity against human MHCC97H cells assessed as reduction in cell survival incubated for 3 days by cell titre-glo assay; type: functional, cell-based; conditions: 72 h
[4] = Cytotoxicity against human MHCC97L cells assessed as reduction in cell survival incubated for 3 days by cell titre-glo assay; type: functional, cell-based; conditions: 72 h
[5] = Cytotoxicity against human HuH7 cells assessed as reduction in cell survival incubated for 3 days by cell titre-glo assay; type: functional, cell-based; conditions: Huh-7, 72 h
NCI-N87 = test: Cytotoxicity against human NCI-N87 cells assessed as reduction in cell survival incubated for 3 days by cell titre-glo assay; type: functional, cell-based; conditions: NCI-N87, 72 h
NCI-H1975 = test: Cytotoxicity against human NCI-H1975 cells assessed as reduction in cell survival incubated for 3 days by cell titre-glo assay; type: functional, cell-based; conditions: NCI-H1975, 72 h
A549 = test: Cytotoxicity against human A549 cells assessed as reduction in cell survival incubated for 3 days by cell titre-glo assay; type: functional, cell-based; conditions: A549, 72 h
[6] = Cytotoxicity against human HCCLM3 cells assessed as reduction in cell survival incubated for 3 days by cell titre-glo assay; type: functional, cell-based; conditions: HCCLM3, 72 h
[7] = molecular target: Tyrosine-protein kinase ABL1 (Homo sapiens, UniProt P00519); test: Inhibition of ABL (unknown origin) incubated for 1 hr by spectrophotometric analysis
[8] = molecular target: RAC-alpha serine/threonine-protein kinase (Homo sapiens, UniProt P31749); test: Inhibition of AKT1 (unknown origin) incubated for 1 hr by spectrophotometric analysis
[9] = molecular target: ALK tyrosine kinase receptor (Homo sapiens, UniProt Q9UM73); test: Inhibition of ALK (unknown origin) incubated for 1 hr by spectrophotometric analysis
Aurora kinase A = Aurora kinase A (Homo sapiens, UniProt O14965); test: Inhibition of Aurora A (unknown origin) incubated for 1 hr by spectrophotometric analysis
[10] = molecular target: Tyrosine-protein kinase receptor UFO (Homo sapiens, UniProt P30530); test: Inhibition of AXL (unknown origin) incubated for 1 hr by spectrophotometric analysis
[11] = molecular target: Tyrosine-protein kinase BTK (Homo sapiens, UniProt Q06187); test: Inhibition of BTK (unknown origin) incubated for 1 hr by spectrophotometric analysis
[12] = molecular target: Cyclin-dependent kinase 2 (Homo sapiens, UniProt P24941); test: Inhibition of CDK2 (unknown origin) incubated for 1 hr by spectrophotometric analysis
Ephrin type-A receptor 2 = Ephrin type-A receptor 2 (Homo sapiens, UniProt P29317); test: Inhibition of ECK (unknown origin) incubated for 1 hr by spectrophotometric analysis
[13] = molecular target: Epidermal growth factor receptor (Homo sapiens, UniProt P00533, L858R); test: Inhibition of EGFR L858R mutant (unknown origin) incubated for 1 hr by spectrophotometric analysis; type: protein assay
[14] = molecular target: Epidermal growth factor receptor (Homo sapiens, UniProt P00533, L858R/T790M); test: Inhibition of EGFR T790M/L858R mutant (unknown origin) incubated for 1 hr by spectrophotometric analysis; type: protein assay
Ephrin type-B receptor 2 = Ephrin type-B receptor 2 (Homo sapiens, UniProt P29323); test: Inhibition of EPHB2 (unknown origin) incubated for 1 hr by spectrophotometric analysis
[15] = molecular target: Fibroblast growth factor receptor 1 (Homo sapiens, UniProt P11362); test: Inhibition of FGFR1 (unknown origin) incubated for 1 hr by spectrophotometric analysis
[16] = molecular target: Fibroblast growth factor receptor 2 (Homo sapiens, UniProt P21802); test: Inhibition of FGFR2 (unknown origin) incubated for 1 hr by spectrophotometric analysis
[17] = molecular target: Fibroblast growth factor receptor 3 (Homo sapiens, UniProt P22607); test: Inhibition of FGFR3 (unknown origin) incubated for 1 hr by spectrophotometric analysis
[18] = molecular target: Fibroblast growth factor receptor 4 (Homo sapiens, UniProt P22455); test: Inhibition of FGFR4 (unknown origin) incubated for 1 hr by spectrophotometric analysis
[19] = molecular target: Receptor tyrosine-protein kinase erbB-2 (Homo sapiens, UniProt P04626); test: Inhibition of HER2 (unknown origin) incubated for 1 hr by spectrophotometric analysis
[20] = molecular target: Receptor tyrosine-protein kinase erbB-4 (Homo sapiens, UniProt Q15303); test: Inhibition of HER4 (unknown origin) incubated for 1 hr by spectrophotometric analysis
Insulin receptor = Insulin receptor (Homo sapiens, UniProt P06213); test: Inhibition of INSR (unknown origin) incubated for 1 hr by spectrophotometric analysis
[21] = molecular target: Tyrosine-protein kinase JAK3 (Homo sapiens, UniProt P52333); test: Inhibition of JAK3 (unknown origin) incubated for 1 hr by spectrophotometric analysis
[22] = molecular target: Muscle, skeletal receptor tyrosine-protein kinase (Homo sapiens, UniProt O15146); test: Inhibition of MUSK (unknown origin) incubated for 1 hr by spectrophotometric analysis
[23] = molecular target: Platelet-derived growth factor receptor alpha (Homo sapiens, UniProt P16234); test: Inhibition of PDGFRalpha (unknown origin) incubated for 1 hr by spectrophotometric analysis
[24] = molecular target: Platelet-derived growth factor receptor beta (Homo sapiens, UniProt P09619); test: Inhibition of PDGFRbeta (unknown origin) incubated for 1 hr by spectrophotometric analysis
[25] = molecular target: Protein kinase C alpha type (Homo sapiens, UniProt P17252); test: Inhibition of PKCalpha (unknown origin) incubated for 1 hr by spectrophotometric analysis
[26] = molecular target: Protein kinase C zeta type (Homo sapiens, UniProt Q05513); test: Inhibition of PKCzeta (unknown origin) incubated for 1 hr by spectrophotometric analysis
[27] = molecular target: Serine/threonine-protein kinase N1 (Homo sapiens, UniProt Q16512); test: Inhibition of PKN1 (unknown origin) incubated for 1 hr by spectrophotometric analysis
[28] = molecular target: Serine/threonine-protein kinase N2 (Homo sapiens, UniProt Q16513); test: Inhibition of PKN2 (unknown origin) incubated for 1 hr by spectrophotometric analysis
[29] = molecular target: Proto-oncogene tyrosine-protein kinase receptor Ret (Homo sapiens, UniProt P07949); test: Inhibition of RET (unknown origin) incubated for 1 hr by spectrophotometric analysis
[30] = molecular target: Macrophage-stimulating protein receptor (Homo sapiens, UniProt Q04912); test: Inhibition of RON (unknown origin) incubated for 1 hr by spectrophotometric analysis
Angiopoietin-1 receptor = Angiopoietin-1 receptor (Homo sapiens, UniProt Q02763); test: Inhibition of TIE2 (unknown origin) incubated for 1 hr by spectrophotometric analysis
[31] = molecular target: Non-receptor tyrosine-protein kinase TYK2 (Homo sapiens, UniProt P29597); test: Inhibition of TYK2 (unknown origin) incubated for 1 hr by spectrophotometric analysis
[32] = molecular target: Tyrosine-protein kinase Yes (Homo sapiens, UniProt P07947); test: Inhibition of YES (unknown origin) incubated for 1 hr by spectrophotometric analysis
[33] = molecular target: cAMP-dependent protein kinase catalytic subunit alpha (Homo sapiens, UniProt P17612); test: Inhibition of PKACalpha (unknown origin) incubated for 1 hr by spectrophotometric analysis

Sequence of ALK tyrosine kinase receptor (Q9UM73 whole entry): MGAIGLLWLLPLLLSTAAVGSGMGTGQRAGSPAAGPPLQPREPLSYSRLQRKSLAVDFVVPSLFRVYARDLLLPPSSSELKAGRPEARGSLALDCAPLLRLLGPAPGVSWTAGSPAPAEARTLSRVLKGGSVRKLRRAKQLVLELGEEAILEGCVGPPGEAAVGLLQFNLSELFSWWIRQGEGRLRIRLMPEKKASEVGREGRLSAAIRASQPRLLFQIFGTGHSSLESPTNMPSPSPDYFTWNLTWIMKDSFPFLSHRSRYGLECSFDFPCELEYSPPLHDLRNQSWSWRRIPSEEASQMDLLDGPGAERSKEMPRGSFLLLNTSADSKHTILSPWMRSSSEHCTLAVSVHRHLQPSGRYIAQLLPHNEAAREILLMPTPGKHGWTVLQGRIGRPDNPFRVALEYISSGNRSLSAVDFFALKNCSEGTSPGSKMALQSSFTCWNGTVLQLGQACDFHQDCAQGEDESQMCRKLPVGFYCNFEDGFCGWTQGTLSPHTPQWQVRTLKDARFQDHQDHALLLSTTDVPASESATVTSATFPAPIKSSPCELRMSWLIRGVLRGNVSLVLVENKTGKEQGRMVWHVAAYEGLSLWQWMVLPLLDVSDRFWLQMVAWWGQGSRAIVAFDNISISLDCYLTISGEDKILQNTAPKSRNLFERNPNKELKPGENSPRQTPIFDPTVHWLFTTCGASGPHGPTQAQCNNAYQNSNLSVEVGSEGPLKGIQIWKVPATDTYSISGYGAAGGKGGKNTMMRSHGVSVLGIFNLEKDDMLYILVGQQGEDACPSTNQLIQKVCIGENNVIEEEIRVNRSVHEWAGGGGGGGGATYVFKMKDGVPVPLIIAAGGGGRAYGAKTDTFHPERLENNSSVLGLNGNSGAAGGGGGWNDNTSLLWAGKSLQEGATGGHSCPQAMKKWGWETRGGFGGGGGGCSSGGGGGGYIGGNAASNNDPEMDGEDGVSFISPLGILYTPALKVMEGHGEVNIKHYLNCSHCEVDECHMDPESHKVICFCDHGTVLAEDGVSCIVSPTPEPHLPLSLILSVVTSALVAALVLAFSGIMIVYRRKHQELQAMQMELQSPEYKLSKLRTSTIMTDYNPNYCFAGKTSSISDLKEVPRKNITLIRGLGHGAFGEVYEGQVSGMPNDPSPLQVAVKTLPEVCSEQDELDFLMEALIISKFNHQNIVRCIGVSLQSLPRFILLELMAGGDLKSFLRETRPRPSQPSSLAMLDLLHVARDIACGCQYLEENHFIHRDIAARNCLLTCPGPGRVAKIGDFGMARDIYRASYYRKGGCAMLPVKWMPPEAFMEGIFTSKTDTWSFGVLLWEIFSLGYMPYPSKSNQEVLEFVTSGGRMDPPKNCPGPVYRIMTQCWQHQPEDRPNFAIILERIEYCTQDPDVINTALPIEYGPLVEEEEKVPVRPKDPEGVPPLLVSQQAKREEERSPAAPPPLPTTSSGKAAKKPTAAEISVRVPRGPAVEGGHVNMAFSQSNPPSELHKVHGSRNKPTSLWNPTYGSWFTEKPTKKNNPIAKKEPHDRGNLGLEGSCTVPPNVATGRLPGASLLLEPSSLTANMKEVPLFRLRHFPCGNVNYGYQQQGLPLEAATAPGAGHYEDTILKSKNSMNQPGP
Sequence of Platelet-derived growth factor receptor alpha (P16234 whole entry): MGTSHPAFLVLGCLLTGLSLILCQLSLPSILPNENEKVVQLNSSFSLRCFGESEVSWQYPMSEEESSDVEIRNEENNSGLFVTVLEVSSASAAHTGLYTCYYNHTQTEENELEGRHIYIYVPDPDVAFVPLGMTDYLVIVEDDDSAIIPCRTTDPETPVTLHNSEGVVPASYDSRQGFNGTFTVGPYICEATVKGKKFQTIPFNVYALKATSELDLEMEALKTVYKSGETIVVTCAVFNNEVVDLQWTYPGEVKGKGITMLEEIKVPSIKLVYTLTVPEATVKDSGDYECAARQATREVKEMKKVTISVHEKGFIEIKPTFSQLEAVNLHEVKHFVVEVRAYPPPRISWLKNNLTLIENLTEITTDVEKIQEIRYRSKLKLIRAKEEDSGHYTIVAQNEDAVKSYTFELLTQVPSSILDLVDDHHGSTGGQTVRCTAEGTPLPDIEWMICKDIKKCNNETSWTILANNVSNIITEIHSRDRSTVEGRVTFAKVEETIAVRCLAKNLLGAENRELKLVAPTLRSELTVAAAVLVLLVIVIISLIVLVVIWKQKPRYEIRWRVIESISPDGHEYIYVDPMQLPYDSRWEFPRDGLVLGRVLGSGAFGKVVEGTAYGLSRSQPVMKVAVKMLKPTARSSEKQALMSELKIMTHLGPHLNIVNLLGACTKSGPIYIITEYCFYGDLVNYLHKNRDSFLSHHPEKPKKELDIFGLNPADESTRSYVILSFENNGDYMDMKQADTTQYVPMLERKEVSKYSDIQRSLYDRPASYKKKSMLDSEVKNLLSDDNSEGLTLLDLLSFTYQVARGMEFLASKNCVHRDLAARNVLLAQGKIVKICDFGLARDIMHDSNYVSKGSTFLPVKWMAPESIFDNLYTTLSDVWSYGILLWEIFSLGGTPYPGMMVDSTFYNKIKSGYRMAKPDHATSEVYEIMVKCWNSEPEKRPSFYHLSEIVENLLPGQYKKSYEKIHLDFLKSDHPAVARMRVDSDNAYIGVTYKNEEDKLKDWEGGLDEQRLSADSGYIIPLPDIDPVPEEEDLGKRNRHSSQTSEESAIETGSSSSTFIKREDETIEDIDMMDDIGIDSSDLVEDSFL
Sequence of Tyrosine-protein kinase receptor UFO (P30530 whole entry): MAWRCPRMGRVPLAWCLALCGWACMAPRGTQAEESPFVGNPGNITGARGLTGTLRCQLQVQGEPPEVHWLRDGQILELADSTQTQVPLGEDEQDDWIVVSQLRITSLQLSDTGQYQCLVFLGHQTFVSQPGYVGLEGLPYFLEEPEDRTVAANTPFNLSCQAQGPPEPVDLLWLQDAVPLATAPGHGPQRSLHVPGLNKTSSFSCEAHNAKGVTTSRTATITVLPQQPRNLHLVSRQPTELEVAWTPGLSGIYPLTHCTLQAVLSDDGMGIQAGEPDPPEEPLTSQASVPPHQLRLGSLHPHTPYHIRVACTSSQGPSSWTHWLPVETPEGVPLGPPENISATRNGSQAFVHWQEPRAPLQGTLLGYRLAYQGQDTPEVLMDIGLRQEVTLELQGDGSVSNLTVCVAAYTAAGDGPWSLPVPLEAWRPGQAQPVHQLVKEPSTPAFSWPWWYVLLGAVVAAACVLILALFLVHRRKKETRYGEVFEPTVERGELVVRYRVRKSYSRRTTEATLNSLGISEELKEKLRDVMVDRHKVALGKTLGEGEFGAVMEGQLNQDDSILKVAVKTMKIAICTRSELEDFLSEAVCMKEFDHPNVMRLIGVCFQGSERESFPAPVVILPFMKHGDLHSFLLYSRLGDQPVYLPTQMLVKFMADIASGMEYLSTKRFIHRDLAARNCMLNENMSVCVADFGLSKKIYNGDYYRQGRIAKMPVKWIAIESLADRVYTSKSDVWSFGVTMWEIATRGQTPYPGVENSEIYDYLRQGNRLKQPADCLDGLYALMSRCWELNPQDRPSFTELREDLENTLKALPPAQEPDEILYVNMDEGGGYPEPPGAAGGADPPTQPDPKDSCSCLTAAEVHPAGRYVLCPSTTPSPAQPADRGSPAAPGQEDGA
Sequence of RAC-alpha serine/threonine-protein kinase (P31749 whole entry): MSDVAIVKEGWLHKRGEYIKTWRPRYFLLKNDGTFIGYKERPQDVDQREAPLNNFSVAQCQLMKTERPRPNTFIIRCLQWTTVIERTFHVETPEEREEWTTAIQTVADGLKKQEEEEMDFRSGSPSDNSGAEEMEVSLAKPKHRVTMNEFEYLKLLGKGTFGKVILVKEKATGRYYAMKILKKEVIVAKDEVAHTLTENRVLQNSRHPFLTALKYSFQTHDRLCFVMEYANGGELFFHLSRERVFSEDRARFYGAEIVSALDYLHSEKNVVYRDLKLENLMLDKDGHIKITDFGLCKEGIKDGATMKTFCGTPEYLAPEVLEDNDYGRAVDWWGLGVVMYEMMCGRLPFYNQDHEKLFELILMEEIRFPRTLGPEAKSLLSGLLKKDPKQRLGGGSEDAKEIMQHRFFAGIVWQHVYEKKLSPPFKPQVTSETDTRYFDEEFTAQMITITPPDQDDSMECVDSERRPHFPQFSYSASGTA

CN1C(=O)COc2c1cnc1ccc(Sc3nnc4c(F)cc(-c5cnn(C)c5)cn34)cc21 [DALMELITINIB]
IC50 [1]: 0.0007 µM
IC50 [2]: 0.002 µM
IC50 [3]: 0.006 µM
IC50 [4]: 0.007 µM
IC50 [5]: > 10 µM
IC50 (NCI-N87): > 10 µM
IC50 (NCI-H1975): > 10 µM
IC50 (A549): > 10 µM
IC50 [6]: 0.033 µM
IC50 [7]: > 30 µM
IC50 [8]: > 30 µM
IC50 [9]: > 30 µM
IC50 (Aurora kinase A): > 30 µM
IC50 [10]: 8.69 µM
IC50 [11]: > 30 µM
IC50 [12]: > 30 µM
IC50 (Ephrin type-A receptor 2): > 30 µM
IC50 [13]: > 30 µM
IC50 [14]: > 30 µM
IC50 (Ephrin type-B receptor 2): > 30 µM
IC50 [15]: > 30 µM
IC50 [16]: > 30 µM
IC50 [17]: > 30 µM
IC50 [18]: > 30 µM
IC50 [19]: > 30 µM
IC50 [20]: > 30 µM
IC50 (Insulin receptor): > 30 µM
IC50 [21]: > 30 µM
IC50 [22]: > 30 µM
IC50 [23]: > 30 µM
IC50 [24]: > 30 µM
IC50 [25]: > 30 µM
IC50 [26]: > 30 µM
IC50 [27]: > 30 µM
IC50 [28]: > 30 µM
IC50 [29]: > 30 µM
IC50 [30]: > 30 µM
IC50 (Angiopoietin-1 receptor): > 30 µM
IC50 [31]: > 30 µM
IC50 [32]: > 30 µM
IC50 [33]: > 30 µM
